The source of these data is ChEMBL document CHEMBL1148032, “Hexaprenoid hydroquinones, novel inhibitors of the reverse transcriptase of human immunodeficiency virus type 1” (J Nat Prod, 1993).

Experiment [1] concerns the target T1, Human immunodeficiency virus type 1 reverse transcriptase (Human immunodeficiency virus 1, UniProt Q72547). The experiment is described as follows: (§1) Inhibition of DNA dependent DNA polymerase activity of HIV1 BH10 recombinant reverse transcriptase p66/p51 assessed as residual enzyme activity.
Experiment [2] deals with Human immunodeficiency virus type 1 reverse transcriptase (Human immunodeficiency virus 1) (UniProt Q72547). The description is as §1.
In experiment [3] the target is T1, Human immunodeficiency virus type 1 reverse transcriptase. The experiment is described as follows: (§2) Inhibition of RNA dependent DNA polymerase activity of HIV1 BH10 recombinant reverse transcriptase p66/p51 assessed as residual enzyme activity by poly(rA)n.oligo(dT)12-18-directed incorporation of [3H]dTTP.
The target in experiment [4] is Human immunodeficiency virus type 1 reverse transcriptase (Human immunodeficiency virus 1) (UniProt Q72547). The experiment is described as §2.
Experiment [5] deals with T1, Human immunodeficiency virus type 1 reverse transcriptase. The experiment is described as follows: Inhibition of RNase H activity of HIV1 BH10 recombinant reverse transcriptase p66/p51 assessed as residual enzyme activity […].

For orientation: IC50 means the concentration needed to halve the response being measured.

Take `CC1=C(Cc2cc(O)ccc2O)[C@]2(C)CCC[C@@](C)(CC[C@@]3(O)[C@H](C)CC[C@@H]4OC(C)(C)CCC[C@@]43C)[C@H]2CC1`: the IC50 in experiment [1] is 1.4 µM; in experiment [3] it was 2.5 µM; in experiment [5], > 250 µM. Moreover, the Inhibition was 14.7 µM in experiment [2] and 18.1 µM in experiment [4].

As to `C[C@@H]1CC=C2[C@@H](CCC[C@@]2(C)CC[C@@]2(C)C3=CCCC(C)(C)[C@H]3CC[C@@H]2C)[C@]1(C)Cc1cc(O)ccc1O`, the results for the IC50 in experiment [1], in experiment [3] and in experiment [5] were 4.2 µM, 2.8 µM and > 250 µM, respectively. The values for the Inhibition in experiment [2] and in experiment [4] were 44.4 µM and 11.1 µM, respectively.

For `CC1(C)CCC[C@]2(C)OC3CC[C@](C)(C4CC[C@]5(C)C4CC[C@]4(C)C6=C(CC54)C(=O)C=CC6=O)[C@]3(C)CCC12` (stereo not given in full), the IC50 in experiment [1] is 4.5 µM; in experiment [3], 13.2 µM; in experiment [5], > 250 µM. Also, the Inhibition in experiment [2] is 54.5 µM; in experiment [4], 28.6 µM.

Take `CC(=O)CC[C@@H]1[C@](C)(CC[C@@]2(O)[C@H](C)CC[C@@H]3OC(C)(C)CCC[C@@]32C)CCC[C@@]1(C)C(=O)Cc1cc(OS(=O)(=O)O)ccc1OS(=O)(=O)O` [SHAAGROCKOL B]: the IC50 is 6.7 µM in experiment [1], 8.5 µM in experiment [3] and > 250 µM in experiment [5]. Also, the Inhibition was found to be 40 µM in experiment [2] and 21.2 µM in experiment [4].

Turning to `CC1=C(Cc2cc(OS(=O)(=O)O)ccc2OS(=O)(=O)O)[C@]2(C)CCC[C@@](C)(CC[C@@]3(O)[C@H](C)CC[C@@H]4OC(C)(C)CCC[C@@]43C)[C@H]2CC1` [SHAAGROCKOL C], the IC50 was 0.8 µM in experiment [1], 3.3 µM in experiment [3] and > 250 µM in experiment [5]. Moreover, the Inhibition amounted to 5 µM in experiment [2] and 9.3 µM in experiment [4].

For the compound `CC1(C)CCC[C@]2(C)OC3CC[C@](C)(C4CC[C@]5(C)C4CC[C@]4(C)c6c(OS(=O)(=O)O)ccc(OS(=O)(=O)O)c6CC54)[C@]3(C)CCC12` (stereo not given in full) [TOXICOL A], the IC50 in experiment [1] is 2.7 µM; in experiment [3], 3.1 µM; in experiment [5] it was > 250 µM. Further, the Inhibition in experiment [2] came out at 5.2 µM; in experiment [4], 6.5 µM.

For `CC1(C)CCC[C@]2(C)OC3CC[C@](C)(C4CC[C@]5(C)C4CC[C@]4(C)c6c(O)ccc(O)c6CC54)[C@]3(C)CCC12` (stereo not given in full) [TOXICOL B], the IC50 in experiment [1] is 8.2 µM; in experiment [3], 3.7 µM; in experiment [5] it was > 250 µM. Further, the Inhibition worked out at 56.2 µM in experiment [2] and 11.1 µM in experiment [4].

Regarding `C[C@@H]1CC=C2[C@@H](CCC[C@@]2(C)CC[C@@]2(C)C3=CCCC(C)(C)[C@H]3CC[C@@H]2C)[C@]1(C)Cc1cc(OS(=O)(=O)O)ccc1OS(=O)(=O)O` [TOXIUSOL SODIUM], the IC50 in experiment [1] was 6.6 µM; in experiment [3], 1.5 µM; in experiment [5], > 250 µM. For the same compound, the Inhibition in experiment [2] is 41.6 µM; in experiment [4], 4.6 µM.
